# Measured values as given in paper PMC7044277 (Nature Communications, 2020).
# Values joined by “and” are separate entries in the source; they are usually repeats but may differ in a detail not shown here. Identical values can stand only once.
# Experiments:
# Type in all cases: cell-based
# 320 non-olfactory GPCRs [1] = target: T1, 320 non-olfactory GPCRs (Homo sapiens, UniProt Q9BPV8); details: receptor P2RY13; replicate values, Fig_4g
# T1 construct: expressed in transfected cells; host or cells: HTLA cells
# T1 sequence (Q9BPV8 whole entry): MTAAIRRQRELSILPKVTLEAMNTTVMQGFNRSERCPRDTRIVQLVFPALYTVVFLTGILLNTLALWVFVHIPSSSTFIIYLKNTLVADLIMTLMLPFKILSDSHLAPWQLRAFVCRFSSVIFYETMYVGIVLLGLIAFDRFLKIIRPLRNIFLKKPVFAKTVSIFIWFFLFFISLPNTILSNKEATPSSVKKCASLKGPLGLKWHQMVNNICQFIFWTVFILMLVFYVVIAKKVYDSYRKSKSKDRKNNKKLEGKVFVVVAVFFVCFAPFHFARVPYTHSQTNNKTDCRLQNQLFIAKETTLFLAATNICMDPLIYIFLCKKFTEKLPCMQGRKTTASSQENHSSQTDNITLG
# 320 non-olfactory GPCRs [2] = target: T2, 320 non-olfactory GPCRs (Homo sapiens, UniProt Q99705); details: receptor MCHR1R; replicate values, Fig_4g
# T2 construct: expressed in transfected cells; host or cells: HTLA cells
# T2 sequence (Q99705 whole entry): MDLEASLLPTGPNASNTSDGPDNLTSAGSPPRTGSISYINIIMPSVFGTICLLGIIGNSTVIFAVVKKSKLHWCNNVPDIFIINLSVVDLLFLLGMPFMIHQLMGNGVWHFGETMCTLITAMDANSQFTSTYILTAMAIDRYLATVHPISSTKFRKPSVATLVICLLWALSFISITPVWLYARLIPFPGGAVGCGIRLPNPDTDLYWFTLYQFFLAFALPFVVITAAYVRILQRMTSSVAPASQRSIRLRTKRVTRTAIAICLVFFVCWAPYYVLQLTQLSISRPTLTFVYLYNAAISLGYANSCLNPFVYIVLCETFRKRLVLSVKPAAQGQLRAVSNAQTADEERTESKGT
# 320 non-olfactory GPCRs [3] = target: T3, 320 non-olfactory GPCRs (Homo sapiens, UniProt P48145); details: receptor NPBW1; replicate values, Fig_4g
# T3 construct: expressed in transfected cells; host or cells: HTLA cells
# T3 sequence (P48145 whole entry): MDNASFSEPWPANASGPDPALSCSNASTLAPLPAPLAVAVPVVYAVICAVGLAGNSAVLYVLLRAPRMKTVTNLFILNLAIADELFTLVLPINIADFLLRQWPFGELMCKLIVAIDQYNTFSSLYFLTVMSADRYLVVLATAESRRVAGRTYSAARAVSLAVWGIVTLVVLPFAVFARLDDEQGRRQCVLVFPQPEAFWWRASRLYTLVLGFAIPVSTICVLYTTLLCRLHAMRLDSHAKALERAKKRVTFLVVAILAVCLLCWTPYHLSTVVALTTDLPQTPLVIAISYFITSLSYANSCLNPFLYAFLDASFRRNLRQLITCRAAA
# 320 non-olfactory GPCRs [4] = target: T4, 320 non-olfactory GPCRs (Homo sapiens, UniProt P08912)
# T4 construct: expressed in transfected cells; host or cells: HTLA cells
# T4 sequence (P08912 whole entry): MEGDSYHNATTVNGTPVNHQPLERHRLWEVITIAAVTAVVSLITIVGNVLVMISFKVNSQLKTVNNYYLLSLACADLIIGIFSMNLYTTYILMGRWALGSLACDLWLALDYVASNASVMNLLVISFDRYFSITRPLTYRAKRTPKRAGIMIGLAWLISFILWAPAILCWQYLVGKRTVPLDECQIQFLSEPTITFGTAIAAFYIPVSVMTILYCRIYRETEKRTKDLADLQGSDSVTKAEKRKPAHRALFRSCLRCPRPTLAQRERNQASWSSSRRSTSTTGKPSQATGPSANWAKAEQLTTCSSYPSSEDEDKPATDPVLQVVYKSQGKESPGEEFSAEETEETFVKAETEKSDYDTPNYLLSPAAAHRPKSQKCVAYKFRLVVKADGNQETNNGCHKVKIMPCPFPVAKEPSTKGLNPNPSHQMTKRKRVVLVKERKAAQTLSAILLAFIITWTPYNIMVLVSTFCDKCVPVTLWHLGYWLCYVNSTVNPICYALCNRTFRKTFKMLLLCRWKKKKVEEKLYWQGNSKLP
# 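Throughout, for Fold of Basal: compound tested at 1 µM final concentration.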
# 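Throughout, for GPCRome agonism screen response: fold over basal response of each receptor without drug.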
smiles,measurement,setting,value
CCOc1cccc2cc(C(C)NCC3(O)CCCCC3)oc12 (stereo not shown) [O4LE6],GPCRome agonism screen response,320 non-olfactory GPCRs [1],0.7893 and 1.044 and 0.6466 and 2.085
same,GPCRome agonism screen response,320 non-olfactory GPCRs [2],0.7534 and 1.295 and 1.833 and 1.448
same,GPCRome agonism screen response,320 non-olfactory GPCRs [3],1.094 and 1.2601 and 1.077 and 0.8815
same,Fold of Basal,320 non-olfactory GPCRs [4],0.9113 and 1.052 and 0.8596 and 0.9753
